Measured values taken from patent US20230085307A1, “PYRIDAZINONE COMPOUND AND HERBICIDE” (NISSAN CHEMICAL CORPORATION, priority 2019, published 2023).

System: late watergrass
Assay: Test Example 1: herbicidal activity, application before weed generation under submerged conditions (Table 16, symbol A)
Format: in vivo, late watergrass (Echinochloa oryzicola)
Conditions: 320 g/ha applied herbicide
Method in brief: (§1)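 Alluvial soil was flooded to 4 cm depth, weed seeds were sown mixed and 2.5-leaf rice seedlings were transplanted. On sowing day, the compound's emulsion, diluted in water to a set dose, was applied to the water surface. Plants grew at 25–30 °C and were scored 0–5 after three weeks.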

**Q.** `C=CCSCc1ccc(-c2sc3ccc(F)cc3c2-c2c(O)c(C)nn(C)c2=O)cc1` [2-323] was tested. Which “Herbicidal effect on A: late watergrass (grade 0-5)” value did it give?
**A.** Its value is 4 (Herbicidal rate of 70% or more and less than 90%).

**Q.** How did the “Herbicidal effect on A: late watergrass (grade 0-5)” value turn out when `C#CCSCc1ccc(-c2sc3ccc(F)cc3c2-c2c(O)c(C)nn(C)c2=O)cc1` [2-325] was run?
**A.** The value was 3 (Herbicidal rate of 40% or more and less than 70%).

System: Japanese bulrush
Assay: Test Example 1: herbicidal activity, application before weed generation under submerged conditions (Table 16, symbol B)
Format: in vivo, Japanese bulrush (Schoenoplectus juncoides)
Conditions: 320 g/ha applied herbicide
Method in brief: as §1

**Q.** How did the “Herbicidal effect on B: Japanese bulrush (grade 0-5)” value turn out when `C=CCSCc1ccc(-c2sc3ccc(F)cc3c2-c2c(O)c(C)nn(C)c2=O)cc1` [2-323] was run?
**A.** The value was 2 (Herbicidal rate of 20% or more and less than 40%).

**Q.** Which “Herbicidal effect on B: Japanese bulrush (grade 0-5)” value does the source give for `C#CCSCc1ccc(-c2sc3ccc(F)cc3c2-c2c(O)c(C)nn(C)c2=O)cc1` [2-325] here?
**A.** Its value is 2 (Herbicidal rate of 20% or more and less than 40%).

System: late watergrass
Assay: Test Example 2: herbicidal activity, application during weed generation under submerged conditions (Table 17, symbol A)
Format: in vivo, late watergrass (Echinochloa oryzicola)
Conditions: AAH 320 g/ha; application during weed generation, submerged conditions
Method in brief: (§2)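 Alluvial soil in Wagner pots was flooded to 4 cm depth and sown with the three weeds together; pots were kept in a greenhouse at 25° C. to 30° C. At the one to two leaf stage, an emulsion formulation diluted in water to a set rate went onto the water surface; scored three weeks later.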

**Q.** `C=CCSCc1ccc(-c2sc3ccc(F)cc3c2-c2c(O)c(C)nn(C)c2=O)cc1` [2-323] was tested. Which “herbicidal effect rating, A: late watergrass” value did it give?
**A.** The value was 3 (Herbicidal rate of 40% or more and less than 70%).

**Q.** How did the “herbicidal effect rating, A: late watergrass” value turn out when `C#CCSCc1ccc(-c2sc3ccc(F)cc3c2-c2c(O)c(C)nn(C)c2=O)cc1` [2-325] was run?
**A.** Its value is 2 (Herbicidal rate of 20% or more and less than 40%).

System: oval-leafed pondweed
Assay: Test Example 2: herbicidal activity, application during weed generation under submerged conditions (Table 17, symbol C)
Format: in vivo, oval-leafed pondweed (Monochoria vaginalis)
Conditions: AAH 320 g/ha; application during weed generation, submerged conditions
Method in brief: as §2

**Q.** For `C=CCSCc1ccc(-c2sc3ccc(F)cc3c2-c2c(O)c(C)nn(C)c2=O)cc1` [2-323], which “herbicidal effect rating, C: oval-leafed pondweed” value is on record?
**A.** Its value is 0 (Herbicidal rate of 5% or less (almost no effect)).

**Q.** How did the “herbicidal effect rating, C: oval-leafed pondweed” value turn out when `C#CCSCc1ccc(-c2sc3ccc(F)cc3c2-c2c(O)c(C)nn(C)c2=O)cc1` [2-325] was run?
**A.** The value was 0 (Herbicidal rate of 5% or less (almost no effect)).

System: barnyard grass
Assay: Test Example 3: herbicidal effect by foliage application, Wagner pot (Table 18, symbol H)
Format: in vivo, barnyard grass (Echinochloa crus-galli)
Conditions: amount of applied herbicide 320 g/ha
Method in brief: (§3)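 Plants were sown in alluvial soil held under 0.1–0.5 cm standing water and grown 14 days in a greenhouse at 25–30 °C. An emulsifiable formulation, water-diluted to the set dose, was then sprayed onto the foliage, and effects were scored three weeks later using previously defined criteria.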

**Q.** For `C=CCSCc1ccc(-c2sc3ccc(F)cc3c2-c2c(O)c(C)nn(C)c2=O)cc1` [2-323], which “herbicidal effect on H: barnyard grass” value is on record?
**A.** The value was 5 (Herbicidal rate of 90% or more (almost completely withered)).

**Q.** With `C#CCSCc1ccc(-c2sc3ccc(F)cc3c2-c2c(O)c(C)nn(C)c2=O)cc1` [2-325] as the compound, how does the “herbicidal effect on H: barnyard grass” value read?
**A.** Its value is 5 (Herbicidal rate of 90% or more (almost completely withered)).

System: Chinese sprangletop
Assay: Test Example 3: herbicidal effect by foliage application, Wagner pot (Table 18, symbol D)
Format: in vivo, chinese sprangletop (Leptochloa chinensis)
Conditions: amount of applied herbicide 320 g/ha
Method in brief: as §3

**Q.** With `C=CCSCc1ccc(-c2sc3ccc(F)cc3c2-c2c(O)c(C)nn(C)c2=O)cc1` [2-323] as the compound, how does the “herbicidal effect on D: Chinese sprangletop” value read?
**A.** The value was 2 (Herbicidal rate of 20% or more and less than 40%).

**Q.** For `C#CCSCc1ccc(-c2sc3ccc(F)cc3c2-c2c(O)c(C)nn(C)c2=O)cc1` [2-325], which “herbicidal effect on D: Chinese sprangletop” value is on record?
**A.** Its value is 3 (Herbicidal rate of 40% or more and less than 70%).

System: rice flat sedge
Assay: Test Example 3: herbicidal effect by foliage application, Wagner pot (Table 18, symbol E)
Format: in vivo, rice flat sedge (Cyperus iria)
Conditions: amount of applied herbicide 320 g/ha
Method in brief: as §3

**Q.** With `C=CCSCc1ccc(-c2sc3ccc(F)cc3c2-c2c(O)c(C)nn(C)c2=O)cc1` [2-323] as the compound, how does the “herbicidal effect on E: rice flat sedge” value read?
**A.** Its value is 3 (Herbicidal rate of 40% or more and less than 70%).

**Q.** For `C#CCSCc1ccc(-c2sc3ccc(F)cc3c2-c2c(O)c(C)nn(C)c2=O)cc1` [2-325], which “herbicidal effect on E: rice flat sedge” value is on record?
**A.** The value was 5 (Herbicidal rate of 90% or more (almost completely withered)).

System: Italian ryegrass
Assay: Test Example 4: herbicidal effect by soil treatment (Table 19, symbol K)
Format: in vivo, Italian ryegrass (Lolium multiflorum)
Conditions: amount of applied herbicide 320 g/ha
Method in brief: (§4)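 In this soil treatment, the formulated compound reached the seeds only through the soil: seeds were buried about 1.5 cm deep in sterilized diluvial soil, then the diluted emulsion was sprayed over the surface. After three weeks at 25° C. to 30° C. in a greenhouse, effects were graded on criteria from an earlier test.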

**Q.** For `C=CCSCc1ccc(-c2sc3ccc(F)cc3c2-c2c(O)c(C)nn(C)c2=O)cc1` [2-323], which “herbicidal effect on K: Italian ryegrass” value is on record?
**A.** Its value is 4 (Herbicidal rate of 70% or more and less than 90%).

**Q.** For `C#CCSCc1ccc(-c2sc3ccc(F)cc3c2-c2c(O)c(C)nn(C)c2=O)cc1` [2-325], which “herbicidal effect on K: Italian ryegrass” value is on record?
**A.** The value was 4 (Herbicidal rate of 70% or more and less than 90%).

System: windgrass
Assay: Test Example 4: herbicidal effect by soil treatment (Table 19, symbol L)
Format: in vivo, windgrass (Apera spica-venti)
Conditions: amount of applied herbicide 320 g/ha
Method in brief: as §4

**Q.** How did the “herbicidal effect on L: windgrass” value turn out when `C=CCSCc1ccc(-c2sc3ccc(F)cc3c2-c2c(O)c(C)nn(C)c2=O)cc1` [2-323] was run?
**A.** The value was 0 (Herbicidal rate of 5% or less (almost no effect)).

**Q.** Which “herbicidal effect on L: windgrass” value does the source give for `C#CCSCc1ccc(-c2sc3ccc(F)cc3c2-c2c(O)c(C)nn(C)c2=O)cc1` [2-325] here?
**A.** The value was 0 (Herbicidal rate of 5% or less (almost no effect)).

System: redroot pigweed
Assay: Test Example 4: herbicidal effect by soil treatment (Table 19, symbol N)
Format: in vivo, redroot pigweed (Amaranthus retroflexus)
Conditions: amount of applied herbicide 320 g/ha
Method in brief: as §4

**Q.** `C=CCSCc1ccc(-c2sc3ccc(F)cc3c2-c2c(O)c(C)nn(C)c2=O)cc1` [2-323] was tested. Which “herbicidal effect on N: redroot pigweed” value did it give?
**A.** Its value is 5 (Herbicidal rate of 90% or more (almost completely withered)).

**Q.** `C#CCSCc1ccc(-c2sc3ccc(F)cc3c2-c2c(O)c(C)nn(C)c2=O)cc1` [2-325] was tested. Which “herbicidal effect on N: redroot pigweed” value did it give?
**A.** The value was 4 (Herbicidal rate of 70% or more and less than 90%).

System: green foxtail
Assay: Test Example 5: herbicidal effect by foliage application, plastic box (Table 20, symbol G)
Format: in vivo, green foxtail (Setaria viridis)
Conditions: foliage application, AAH 320 g/ha, evaluated three weeks after application
Method in brief: (§5)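 Plants were sown into sterilized diluvial soil under about 1.5 cm cover and kept in a greenhouse at 25° C. to 30° C. Fourteen days on, foliage received an even spray of the diluted emulsion. Herbicidal or crop effect was judged three weeks afterwards.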

**Q.** `C=CCSCc1ccc(-c2sc3ccc(F)cc3c2-c2c(O)c(C)nn(C)c2=O)cc1` [2-323] was tested. Which “G: green foxtail, herbicidal effect (criteria 0-5)” value did it give?
**A.** The value was 5 (Herbicidal rate of 90% or more (almost completely withered)).

**Q.** Which “G: green foxtail, herbicidal effect (criteria 0-5)” value does the source give for `C#CCSCc1ccc(-c2sc3ccc(F)cc3c2-c2c(O)c(C)nn(C)c2=O)cc1` [2-325] here?
**A.** Its value is 5 (Herbicidal rate of 90% or more (almost completely withered)).

System: barnyard grass
Assay: Test Example 5: herbicidal effect by foliage application, plastic box (Table 20, symbol H)
Format: in vivo, barnyard grass (Echinochloa crus-galli)
Conditions: foliage application, AAH 320 g/ha, evaluated three weeks after application
Method in brief: as §5

**Q.** For `C=CCSCc1ccc(-c2sc3ccc(F)cc3c2-c2c(O)c(C)nn(C)c2=O)cc1` [2-323], which “H: barnyard grass, herbicidal effect (criteria 0-5)” value is on record?
**A.** Its value is 4 (Herbicidal rate of 70% or more and less than 90%).

**Q.** Which “H: barnyard grass, herbicidal effect (criteria 0-5)” value does the source give for `C#CCSCc1ccc(-c2sc3ccc(F)cc3c2-c2c(O)c(C)nn(C)c2=O)cc1` [2-325] here?
**A.** Its value is 5 (Herbicidal rate of 90% or more (almost completely withered)).

System: wild oat
Assay: Test Example 5: herbicidal effect by foliage application, plastic box (Table 20, symbol I)
Format: in vivo, wild oat (Avena fatua)
Conditions: foliage application, AAH 320 g/ha, evaluated three weeks after application
Method in brief: as §5

**Q.** `C=CCSCc1ccc(-c2sc3ccc(F)cc3c2-c2c(O)c(C)nn(C)c2=O)cc1` [2-323] was tested. Which “I: wild oat, herbicidal effect (criteria 0-5)” value did it give?
**A.** The value was 3 (Herbicidal rate of 40% or more and less than 70%).

**Q.** With `C#CCSCc1ccc(-c2sc3ccc(F)cc3c2-c2c(O)c(C)nn(C)c2=O)cc1` [2-325] as the compound, how does the “I: wild oat, herbicidal effect (criteria 0-5)” value read?
**A.** Its value is 4 (Herbicidal rate of 70% or more and less than 90%).

System: blackgrass
Assay: Test Example 5: herbicidal effect by foliage application, plastic box (Table 20, symbol J)
Format: in vivo, blackgrass (Alopecurus myosuroides)
Conditions: foliage application, AAH 320 g/ha, evaluated three weeks after application
Method in brief: as §5

**Q.** For `C=CCSCc1ccc(-c2sc3ccc(F)cc3c2-c2c(O)c(C)nn(C)c2=O)cc1` [2-323], which “J: blackgrass, herbicidal effect (criteria 0-5)” value is on record?
**A.** Its value is 4 (Herbicidal rate of 70% or more and less than 90%).

**Q.** `C#CCSCc1ccc(-c2sc3ccc(F)cc3c2-c2c(O)c(C)nn(C)c2=O)cc1` [2-325] was tested. Which “J: blackgrass, herbicidal effect (criteria 0-5)” value did it give?
**A.** Its value is 4 (Herbicidal rate of 70% or more and less than 90%).

System: Italian ryegrass
Assay: Test Example 5: herbicidal effect by foliage application, plastic box (Table 20, symbol K)
Format: in vivo, Italian ryegrass (Lolium multiflorum)
Conditions: foliage application, AAH 320 g/ha, evaluated three weeks after application
Method in brief: as §5

**Q.** `C=CCSCc1ccc(-c2sc3ccc(F)cc3c2-c2c(O)c(C)nn(C)c2=O)cc1` [2-323] was tested. Which “K: Italian ryegrass, herbicidal effect (criteria 0-5)” value did it give?
**A.** The value was 4 (Herbicidal rate of 70% or more and less than 90%).

**Q.** With `C#CCSCc1ccc(-c2sc3ccc(F)cc3c2-c2c(O)c(C)nn(C)c2=O)cc1` [2-325] as the compound, how does the “K: Italian ryegrass, herbicidal effect (criteria 0-5)” value read?
**A.** Its value is 4 (Herbicidal rate of 70% or more and less than 90%).

System: redroot pigweed
Assay: Test Example 5: herbicidal effect by foliage application, plastic box (Table 20, symbol N)
Format: in vivo, redroot pigweed (Amaranthus retroflexus)
Conditions: foliage application, AAH 320 g/ha, evaluated three weeks after application
Method in brief: as §5

**Q.** For `C=CCSCc1ccc(-c2sc3ccc(F)cc3c2-c2c(O)c(C)nn(C)c2=O)cc1` [2-323], which “N: redroot pigweed, herbicidal effect (criteria 0-5)” value is on record?
**A.** The value was 5 (Herbicidal rate of 90% or more (almost completely withered)).

**Q.** With `C#CCSCc1ccc(-c2sc3ccc(F)cc3c2-c2c(O)c(C)nn(C)c2=O)cc1` [2-325] as the compound, how does the “N: redroot pigweed, herbicidal effect (criteria 0-5)” value read?
**A.** The value was 5 (Herbicidal rate of 90% or more (almost completely withered)).
